Results taken from patent US20250353821A1, “BENZENE SULFONAMIDE THIAZOLE COMPOUNDS AND THEIR USE FOR THE TREATMENT OF CANCERS” (INSERM (INSTITUT NATIONAL DE LA SANTÉ ET DE LA RECHERCHE …, priority 2021, published 2025).
≈ marks a conversion by molar mass, not a printed value.

How the values were obtained:
[1] = tested on: normal human melanocytes (MHN); test: In vitro toxicity test on normal human melanocytes, 48 h; assay type: cell-based; settings: concentration 10 times higher than its IC50, FIG. 2
A375 melanoma cells [2] = test: Cell viability by cell counting, trypan blue exclusion method; assay type: cell-based; settings: Homo sapiens, A-375, 48 h, percentage of cells alive relative to negative control DMSO (100%)
[3] = tested on: Normal human fibroblasts (FHN); test: In vitro toxicity test on normal human fibroblasts, 48 h; assay type: cell-based; settings: concentration 10 times higher than its IC50, FIG. 2
[4] = tested on: CHOP in A375 melanoma cells; test: CHOP induction (ER stress marker), western blot, A375; assay type: cell-based, human; design: key: −: No induction of CHOP; +: Induction of CHOP; ++: Significant induction of CHOP; +++: Strong induction of CHOP; settings: A375 (serum free), 24 h
CHOP in Kyse 70 cells = test: CHOP induction (ER stress marker), western blot, Kyse70; assay type: cell-based, human; design: key: −: No induction of CHOP; +: Induction of CHOP; ++: Significant induction of CHOP; +++: Strong induction of CHOP; settings: Kyse70 (serum free), 24 h
A375 melanoma cells [5] = test: IC50 determination in A375 cells, blue trypan exclusion; assay type: cell-based, human; settings: Homo sapiens, A-375; A375, serum free, 24 h
[6] = Pharmacokinetics in mice (half-life, AUC IV, AUC PO); assay type: in vivo; settings: for half-life: mouse, in vivo, 1 mg/kg, head prints both IV and PO administration 1 mpk, read-out: T½ IV (min) (PO administration 1 mpk)
CHOP in SH10TC cells = test: CHOP induction (ER stress marker), western blot, SH10TC; assay type: cell-based, human; design: key: −: No induction of CHOP; +: Induction of CHOP; ++: Significant induction of CHOP; +++: Strong induction of CHOP; settings: SH10TC (serum free), 24 or 48 h
Aqueous solubility = assay type: physicochemical; settings: aqueous medium (not further specified), read-out: Solublity
CHOP in KATO III cells = test: CHOP induction (ER stress marker), western blot, Kato III; assay type: cell-based, human; design: key: −: No induction of CHOP; +: Induction of CHOP; ++: Significant induction of CHOP; +++: Strong induction of CHOP; settings: Kato III (1% SVF), 24 or 48 h
[7] = tested on: NCI-60 Human Tumor Cell Lines; test: DTP-NCI-60 Human Tumor Cell Lines screen, one-dose; assay type: cell-based; settings: growth relative to no-drug control and time zero, 100 = no inhibition, 0 = no net growth, negative = lethality
[8] = Chemical stability in PBS/DMSO and aqueous HCl; assay type: physicochemical; settings: 24 h

SMILES | toxicity in normal human melanocytes [1] | viability at 5 µM (A375 melanoma cells [2]; 5 μM) | viability at 10 µM (A375 melanoma cells [2]; 10 μM) | toxicity in normal human fibroblasts [3] | Induction of CHOP in comparison to control condition, A375 [4] | Induction of CHOP in comparison to control condition, Kyse70 (CHOP in Kyse 70 cells) | IC50 (A375 melanoma cells [5]) | AUC IV (min · ng/mL/mpk) [6] | AUC PO (min · ng/mL/mpk) [6] | half-life [6] | Induction of CHOP in comparison to control condition, SH10TC (CHOP in SH10TC cells) | solubility (Aqueous solubility) | Induction of CHOP in comparison to control condition, Kato III (CHOP in KATO III cells) | Mean growth inhibition value (data from DTP-NCI60) [7] | chemical stability ([8]; PBS (pH 7.4), 20% DMSO) | chemical stability ([8]; PBS (pH 7.4), 20% DMSO, 80° C.) | chemical stability ([8]; aqueous HCl (0.1M))
CC(=O)NCCCCCC(=O)Nc1nc(-c2cccc(NS(=O)(=O)c3cccc4c(N(C)C)cccc34)c2)cs1 [PB628, 6-acetamido-N-(4-(3-((5-(dimethylamino)naphthalene)-1-sulfonamido)phenyl)thiazol-2-yl)hexanamide] | no toxicity | 25.2 ± 6.1% | 12.5 ± 6.7% | no toxicity |  |  |  |  |  |  |  |  |  |  |  |  | 
CCCCCc1ccc(S(=O)(=O)Nc2cccc(-c3csc(NC(=O)CN4CCN(C)CC4)n3)c2)cc1 [PB688, 2-(4-methylpiperazin-1-yl)-N-(4-(3-((4-pentylphenyl)sulfonamido)phenyl)thiazol-2 yl)acetamide] |  |  |  |  | +++ | +++ | 1 µM | 112348 min · ng/mL/mpk | 3000 min · ng/mL/mpk | 76 min | ++ | 17 ± 7 µM (≈ 9.21 µg/mL) | + |  |  |  | 
CCCCCc1ccc(S(=O)(=O)Nc2cccc(-c3csc(NC(=O)CN4CCN(CCO)CC4)n3)c2)cc1 [PB689, 2-(4-(2-hydroxyethyl)piperazin-1-yl)-N-(4-(3-((4-pentylphenyl)sulfonamido)phenyl)thiazol-2-yl)acetamide] |  |  |  |  | + | + | 1.3 µM |  |  | 110 min | +++ |  | ++ |  |  |  | 
CCCCCc1ccc(S(=O)(=O)Nc2cc(-c3csc(NC(=O)CN4CCN(C)CC4)n3)ccc2OC)cc1 [PB691, N-(4-(4-methoxy-3-((4-pentylphenyl)sulfonamido)phenyl)thiazol-2-yl)-2-(4-methylpiperazin-1-yl)acetamide] |  |  |  |  | + | ++ | 1.7 µM |  | 6266 min · ng/mL/mpk | 77 min | − |  | + |  |  |  | 
CCCCCc1ccc(S(=O)(=O)Nc2cc(-c3csc(NC(=O)CN4CCN(CCO)CC4)n3)ccc2OC)cc1 [PB692, 2-(4-(2-hydroxyethyl)piperazin-1-yl)-N-(4-(4-methoxy-3-((4-pentylphenyl)sulfonamido)phenyl)thiazol-2-yl)acetamide] |  |  |  |  | + | + | 1.6 µM | 488474 min · ng/mL/mpk | 3978 min · ng/mL/mpk |  | + | 7 ± 5 µM (≈ 4.21 µg/mL) | + | 23.99 |  |  | 
CCCCCc1ccc(S(=O)(=O)Nc2cccc(-c3csc(NC(=O)CNCCN(C)C)n3)c2)cc1 [PB693, 2-((2-(dimethylamino)ethyl)amino)-N-(4-(3-((4-pentylphenyl)sulfonamido)phenyl)thiazol-2-yl)acetamide] |  |  |  |  | ++ | + | 1 µM |  |  |  | − |  | − |  |  |  | 
CCCCCc1ccc(S(=O)(=O)Nc2cccc(-c3csc(NC(=O)CCCCCN4CCN(C)CC4)n3)c2)cc1 [PB694, 6-(4-methylpiperazin-1-yl)-N-(4-(3-((4-pentylphenyl)sulfonamido)phenyl)thiazol-2-yl)hexanamide] |  |  |  |  | + | ++ | 0.75 µM |  |  |  | ++ |  | + | 37.26 |  |  | 
CCCCCc1ccc(S(=O)(=O)Nc2cccc(-c3csc(NC(=O)CCCCCN4CCN(CCO)CC4)n3)c2)cc1 [PB695, 6-(4-(2-hydroxyethyl)piperazin-1-yl)-N-(4-(3-((4-pentylphenyl)sulfonamido)phenyl)thiazol-2-yl)hexanamide] |  |  |  |  | + | + | 0.6 µM |  |  |  | ++ |  | − |  |  |  | 
CCCCCc1ccc(S(=O)(=O)Nc2cc(-c3csc(NC(=O)CN4CCN(C)CC4)n3)ccc2N2CCN(C)CC2)cc1 [PB696, 2-(4-methylpiperazin-1-yl)-N-(4-(4-(4-methylpiperazin-1-yl)-3-((4-pentylphenyl)sulfonamido)phenyl)thiazol-2-yl)acetamide] |  |  |  |  | + | − | 0.9 µM |  |  | 312 min | ++ | 49 ± 16 µM (≈ 31.4 µg/mL) | + |  |  |  | 
CCCCCc1ccc(S(=O)(=O)Nc2cccc(-c3csc(NCCN4CCN(C)CC4)n3)c2)cc1 [PB704, N-(3-(2-((2-(4-methylpiperazin-1-yl)ethyl)amino)thiazol-4-yl)phenyl)-4-pentylbenzenesulfonamide] |  |  |  |  | ++ | + | 1.2 µM | 197707 min · ng/mL/mpk | 4435 min · ng/mL/mpk |  | − | 1.4 ± 0.3 µM (≈ 0.739 µg/mL) | + | 55.54 | full stability | full stability | full stability
CCCCCc1ccc(S(=O)(=O)N(C(C)=O)c2cccc(-c3csc(N(CCN4CCN(C)CC4)C(C)=O)n3)c2)cc1 [PB705, N-(2-(4-methylpiperazin-1-yl)ethyl)-N-(4-(3-(N-((4-pentylphenyl)sulfonyl)acetamido)phenyl)thiazol-2-yl)acetamide] |  |  |  |  | ++ |  | 1.3 µM |  |  |  |  |  | ++ | 5.64 |  |  | 
